Results on seven molecules are retold here after patent US20220313819A1, “COMBINATION THERAPY FOR THE TREATMENT OF SOLID AND HEMATOLOGICAL CANCERS” (Arch Oncology, Inc., priority 2019, published 2022).

One test concerns RPMI-8226 tumors. Description: RPMI-8226 multiple myeloma xenograft in NSG mice. In kind it is in vivo, mouse. The text has this:
RPMI-8226 human multiple myeloma cells (ATCC #CCL-155, Manassas, Va.) were maintained in RPMI-1640 (Lonza; Walkersville, Md.) supplemented with 10% Fetal Bovine Serum (FBS; Omega Scientific; Tarzana, Calif.) and 1% Penicillin/Streptomycin (Corning, Manassas, Va.) within a 5% CO2 atmosphere. Cultures were expanded in tissue culture flasks.
(§1) Female NSG (NOD-Cg-Prkdc^scidI12rg^tm1Wjl/SzJ) were obtained from Jackson Laboratory (Bar Harbor, Me.) at 5-6 weeks of age. Mice were acclimated prior to handling and housed in microisolator cages (Lab Products, Seaford, Del.) under specific pathogen-free conditions. Mice were fed Teklad Global Diet® 2920x irradiated laboratory animal diet (Envigo, Formerly Harlan; Indianapolis, Ind.) and provided autoclaved water ad libitum. All procedures were carried out under Institutional Animal Care and Use guidelines.
Female NSG mice were inoculated subcutaneously in the right flank with 0.1 mL of a 30% RPMI/70% Matrigel™ (BD Biosciences; Bedford, Mass.) mixture containing a suspension of 1×10^7 RPMI-8226 tumor cells.
(§2) The mean TS of each group was calculated and reported.
Differences in Day 48 tumor volumes were confirmed using a one-way ANOVA, unpaired, parametric with the Tukey's Multiple Comparison test with Welch's correction. […]

For test [1], the system named is MM.1S tumors. Description: MM.1S multiple myeloma xenograft, combination with bortezomib. In kind it is in vivo, mouse.
Source text: MM.1S human multiple myeloma cells (ATCC #CRL-2974, Manassas, Va.) were maintained in RPMI-1640 (Lonza; Walkersville, Md.) supplemented with 10% Fetal Bovine Serum (FBS; Omega Scientific; Tarzana, Calif.) and 1% Penicillin/Streptomycin (Corning, Manassas, Va.) within a 5% CO2 atmosphere. Cultures were expanded in tissue culture flasks.
as §1, §2
All statistical analyses in the xenograft study were performed with Prism GraphPad® software.

The next test has as its system SNU-1 tumors. Kind of test: SNU-1 gastric carcinoma xenograft in NSG mice. In kind it is in vivo, mouse. To be noted: antibody 25 mg/kg IP Q7D×5, cisplatin 3 mg/kg Q7D×4. Here is the method: Female NSG mice (NOD-Cg-PrkdcscidI12rgtm1Wjl/SzJ, Jackson Laboratories) were inoculated subcutaneously in the right flank with 0.1 mL of a 30% RPMI/70% Matrigel™ (BD Biosciences; Bedford, Mass.) mixture containing a suspension of 5×10^6 SNU-1 gastric carcinoma cells (ATCC). Eight days following inoculation, digital calipers were used to measure width and length diameters of the tumor. Tumor volumes were calculated utilizing the formula: tumor volume (mm^3)=(a×b^2/2) where ‘b’ is the smallest diameter and ‘a’ is the largest diameter. Mice with palpable tumor volumes of 50-100 mm^3 were randomized into 10 mice/group and administered anti-CD47 mAb VLX9hum_06 IgG2, cisplatin, control IgG2, or a combination of anti-CD47 mAb VLX9hum_06 IgG2 with cisplatin. Mice were treated with 25 mg/kg of antibody once a week for 5 weeks (Q7D×5) by intraperitoneal injection (IP) and/or with 3 mg/kg of cisplatin once weekly for 4 weeks (Q7D×4). Tumor volumes and body weights were recorded twice weekly.
Mean tumor growth inhibition (TGI) was calculated utilizing the following formula.
Significant differences in tumor volume were confirmed using a two-way ANOVA, unpaired, parametric with the Tukey's Multiple Comparison test.

Another test relates to OV90 tumors. Description: OV90 ovarian carcinoma xenograft in NSG mice. In kind it is in vivo, mouse. The following applies: OV90, Day 52; antibody 10 mg/kg IP QD5×6, cisplatin 5 mg/kg, paclitaxel 20 mg/kg.
Test [2] deals with MM.1S tumors. Description: MM.1S xenograft in NOD-SCID mice, combination with lenalidomide or pomalidomide. In kind it is in vivo, mouse. The following applies: for complete tumor regression: N=9/group; for tumor growth inhibition (TGI): mAb 25 mg/kg IP weekly. From the text: MM.1S human multiple myeloma cells (ATCC #CRL-2974, Manassas, Va.) were maintained in RPMI-1640 (Lonza; Walkersville, Md.) supplemented with 10% Fetal Bovine Serum (FBS; Omega Scientific; Tarzana, Calif.) and 1% Penicillin/Streptomycin (Corning, Manassas, Va.) within a 5% CO2 atmosphere. Cultures were expanded in tissue culture flasks. Female NOD-SCID (NOD.CB17-Prkdc^scid/J) mice were obtained from Jackson Laboratory (Bar Harbor, Me.) at 5-6 weeks of age. Mice were acclimated prior to handling and housed in microisolator cages (Lab Products, Seaford, Del.) under specific pathogen-free conditions. Mice were fed Teklad Global Diet® 2920x irradiated laboratory animal diet (Envigo, Formerly Harlan; Indianapolis, Ind.) and provided autoclaved water ad libitum. All procedures were carried out under Institutional Animal Care and Use guidelines.
Female NOD-SCID mice were inoculated subcutaneously in the right flank with 0.1 mL of a 50% RPMI-1640/50% Matrigel™ (BD Biosciences; Bedford, Mass.) mixture containing a suspension of 5×10^6 MM.1S tumor cells. When tumors reached volumes of approximately 50-100 mm^3, mice were randomized. The test articles, human IgG2 (hIgG2), anti-CD47 mAb (VLX9hum_06 IgG2) were administered by intraperitoneal (IP) injection and lenalidomide or pomalidomide (LC Labs, Woburn, Mass.) were administered by oral gavage (PO). hIgG2 (25 mg/kg) or an anti-CD47 mAb VLX9hum_06 IgG2 (25 mg/kg) were administered weekly for 5 weeks, while lenalidomide (25 mg/kg) or pomalidomide (10 mg/kg) were administered on 4 successive days, with 3 days off, weekly for 5 weeks.
Mean tumor growth inhibition (TGI) was calculated at Day 24 (the final day all mice were on study) utilizing the following formula.
All statistical analyses in the xenograft study were performed with Prism GraphPad® software. Differences in Day 24 tumor volumes were confirmed using a two-way ANOVA, unpaired, parametric with the Tukey's Multiple Comparison test with Welch's correction.

A further test concerns Jurkat T ALL cell line. Kind of test: ATP release. The following applies: mAb 10 μg/ml or mitoxantrone 1 μM, 24 hours. In kind it is cell-based, human. As to the method: Release of ATP from the tumor cell is determined by quantitative bioluminescence assay as described by the manufacturer (Molecular Probes; Catalogue #A22066).
The humanized antibodies (VLX4hum_01 IgG4PE, VLX4hum_07 IgG4PE, VLX8hum_11 IgG4PE, VLX9hum_06 IgG2, VLX9hum_08 IgG2 and VLX9hum_03) as disclosed herein, purified from transient transfections in CHO cells as described above, as well as the control chimeric antibody, were added at a final concentration of 10 μg/ml. As a positive control for ATP release, cells were treated with 1 μM of chemotherapeutic anthracycline mitoxantrone. The cells were incubated at 37° C. for 24 hours, after which the cell-free supernatant was collected and stored at −80° C. After all samples have been collected, 10 μl of each sample was tested by the ATP determination kit as described above. […] Results are presented as means SEM and analyzed for statistical significance using ANOVA in GraphPad Prism 6.

For test [3], the system named is MM.1S tumors. Kind of test: MM.1S multiple myeloma xenograft, combination with daratumumab. In kind it is in vivo, mouse. Here is the method: The anti-tumor properties of a humanized anti-CD47 antibody (VLX9hum_06 IgG2) and in combination with anti-CD38 monoclonal antibody daratumumab which reduce tumor burden in a xenograft MM.1S multiple myeloma NSG mouse model were evaluated MM.1S human multiple myeloma cells (ATCC #CRL-2974, Manassas, Va.) were maintained in RPMI-1640 (Lonza; Walkersville, Md.) supplemented with 10% Fetal Bovine Serum (FBS; Omega Scientific; Tarzana, Calif.) and 1% Penicillin/Streptomycin (Corning, Manassas, Va.) within a 5% CO2 atmosphere. Cultures were expanded in tissue culture flasks.
as §1
Female NSG mice were inoculated subcutaneously in the right flank with 0.1 mL of a 30% RPMI/70% Matrigel™ (BD Biosciences; Bedford, Mass.) mixture containing a suspension of 5×10^6 MM.1S tumor cells. […]
Mean tumor growth inhibition (TGI) was calculated at Day 20 utilizing the following formula. […]

Experimental for OV90 tumors: Female NSG mice (NOD-Cg-PrkdcscidI12rgtm1Wjl/SzJ, Jackson Laboratories) were inoculated subcutaneously in the right flank with 0.1 mL of a 30% RPMI/70% Matrigel™ (BD Biosciences; Bedford, Mass.) mixture containing a suspension of 5×10^6 OV90 ovarian carcinoma cells (ATCC). Digital calipers were used to measure width and length diameters of the tumor. Tumor volumes were calculated utilizing the formula: tumor volume (mm^3)=(a×b^2/2) where ‘b’ is the smallest diameter and ‘a’ is the largest diameter. Mice with palpable tumor volumes of 50-100 mm^3 were randomized into 10 mice/group. […] Tumor volumes and body weights were recorded twice weekly.

As for `CC(C)C[C@H](NC(=O)[C@H](Cc1ccccc1)NC(=O)c1cnccn1)B(O)O` [bortezomib], the median survival was determined as 78 days with RPMI-8226 tumors (RPMI-8226, 1 mg/kg) and 35 days in the test with MM.1S tumors [1]. The “tumor growth inhibition (TGI)” value with RPMI-8226 tumors (RPMI-8226, Day 48, 1 mg/kg IV Day 1, 4, 12) worked out at 96%; in the test with MM.1S tumors [1] (Day 20, mAb 25 mg/kg IP weekly, bortezomib 0.75 then 0.5 mg/kg IV) it was 91.8%.

For `N.N.[Cl][Pt][Cl]` [cisplatin], the “tumor growth inhibition (TGI)” value was 39.7% with SNU-1 tumors and 53.1% with OV90 tumors.

In the case of `Nc1cccc2c1CN(C1CCC(=O)NC1=O)C2=O` (centres unmarked) [lenalidomide], the complete tumor regression result with MM.1S tumors [2] (FIG. 91A) is reported as “no tumor regressions”. In addition, the “tumor growth inhibition (TGI)” value with MM.1S tumors [2] (day 24, FIG. 91A, lenalidomide 25 mg/kg PO) is listed as 48%.

`O=C1c2c(O)ccc(O)c2C(=O)c2c(NCCNCCO)ccc(NCCNCCO)c21` [mitoxantrone]: the “amount of released ATP” value in the test with Jurkat T ALL cell line is recorded as “did not (ns)”.

With `CC(=O)O[C@H]1C(=O)[C@@]2(C)[C@H]([C@H](OC(=O)c3ccccc3)[C@]3(O)C[C@H](OC(=O)[C@H](O)[C@@H](NC(=O)c4ccccc4)c4ccccc4)C(C)=C1C3(C)C)[C@]1(OC(C)=O)CO[C@@H]1C[C@@H]2O` [paclitaxel], the “tumor growth inhibition (TGI)” value in the test on OV90 tumors is listed as 32.1%.

`Nc1cccc2c1C(=O)N(C1CCC(=O)NC1=O)C2=O` (centres unmarked) [pomalidomide]: the complete tumor regression entry in the test on MM.1S tumors [2] (FIG. 91B) is “no tumor regressions”. For the same molecule, the “tumor growth inhibition (TGI)” value in the test with MM.1S tumors [2] (day 24, FIG. 91B, pomalidomide 10 mg/kg PO) was 23%.

For “daratumumab: anti-CD38 monoclonal antibody”, the median survival in the test on MM.1S tumors [3] came to 29 days. The “tumor growth inhibition (TGI)” value in the test with MM.1S tumors [3] (Day 20, mAb 25 mg/kg weekly, daratumumab 15 mg/kg twice weekly) is on record as 54%.
